Source: PMC7071032, “In Vitro Inhibition of Hsp90 Protein by Benzothiazoloquinazolinequinones Is Enhanced in The Presence of Ascorbate. A Preliminary In Vivo Antiproliferative Study” (Molecules, 2020)
Where two headings read alike, the source gives them in different places.

How the values were obtained:
[1] = tested on: panel of cancer cells (T24, DU-145, MCF-7); assay: MTT reduction assay, panel of cancer cells (means, ranges, selectivity index); assay type: cell-based, human; conditions: for IC50: Homo sapiens
Description: As positive control, two well-known anticancer drugs, namely TAM and 5-FU, were also tested on these cell lines. […] Regarding 5-FU, it is a broad-spectrum chemotherapeutic drug used to treat a variety of malignancies. Particularly, it has a long history of use against bladder tumors.
Such a selective index was calculated as the ratio between IC50 values of healthy cells/IC50 values in cancer cells.
Cells were seeded into 96-well plates at a density of 10,000 cells/well for 24 h and then incubated for 48 h with or without the quinone derivatives. […] The IC50 values were determined using the GraphPad Prism software (San Diego, CA, USA). Further incubation procedures and optical density reading of colored solutions were performed according to Benites et al..

Hsp90 [2] = assay: Immunoblot of Hsp90 protein integrity in T24 cells; assay type: cell-based, human; conditions: 5 µM quinone plus 1 mM ascorbate, 4 h
Description: Nevertheless, when incubation was done in the presence of 1 mM ascorbate (vitamin C) plus quinones (including menadione), a new peptide fragment of about 70 kD was detected by the antibody against Hsp90.
Figure 1 Effects of selected quinones of Hsp90 (A) and poly(ADPribose)polymerase (PARP) (B) protein integrity in T24 cells. Cancer cells were incubated for 4 h with 5 µM menadione (K3), 15, 16, 19, or 20 either in the absence or in the presence of 1 mM ascorbate (Asc). Ctl represents control untreated cells. * p < 0.05 as compared to control conditions.
Cancer cells were incubated for 4 h in the absence and in the presence of compounds. Afterward, cells were washed twice with ice-cold PBS and then resuspended in RIPA lysis buffer supplemented with 1% protease inhibitor cocktail (Sigma–Aldrich, St. Louis, MO, USA) and 3% phosphatase inhibitor cocktail (Calbiochem, Darmstadt, Germany). Treatment of samples and electrophoresis conditions were conducted as previously reported. Mouse monoclonal primary antibodies against hsp90α/β C-terminus (F8), and against β-actin (clone AC-15), were purchased from Santa Cruz Biotechnology (Santa Cruz, CA, USA) and from Abcam (Cambridge, UK), respectively. Rabbit polyclonal antibodies against PARP were purchased from BD Biosciences (San Diego, CA, USA). […]

Hsp90 [3] = assay: Immunoblot of Hsp90 protein integrity in TLT cells; assay type: cell-based, murine; conditions: 5 µM plus 1 mM ascorbate, 4 h
Description: Cancer cells were incubated for 4 h with 5 µM menadione (K3) or 15 either in the absence or in the presence of 1 mM ascorbate (Asc). Ctl represents control untreated cells. * p < 0.05 as compared to control conditions. Cancer cells were incubated for 4 h in the absence and in the presence of compounds. Afterward, cells were washed twice with ice-cold PBS and then resuspended in RIPA lysis buffer supplemented with 1% protease inhibitor cocktail (Sigma–Aldrich, St. Louis, MO, USA) and 3% phosphatase inhibitor cocktail (Calbiochem, Darmstadt, Germany). Treatment of samples and electrophoresis conditions were conducted as previously reported. Mouse monoclonal primary antibodies against hsp90α/β C-terminus (F8), and against β-actin (clone AC-15), were purchased from Santa Cruz Biotechnology (Santa Cruz, CA, USA) and from Abcam (Cambridge, UK), respectively. Rabbit polyclonal antibodies against PARP were purchased from BD Biosciences (San Diego, CA, USA). Goat anti-rabbit antibody and rabbit anti-mouse polyclonal antibody were purchased respectively from Chemicon International (Temecula, CA, USA) and DakoCytomation (Glostrup, Denmark).

[4] = tested on: transplantable primary liver tumor (TLT); assay: In vivo antitumor activity in TLT-bearing mice; conditions: TLT-bearing NMRI mice
Description: To go one-step further, we assessed the effect of the quinone derivative 15 in the TLT-bearing mice model. The dose of 15 used in this study (i.e., 10 mg/kg) was calculated according to doses of menadione, previously used by Verrax et al.. In mice treated with 15, the calculated mean survival time was 24.0 days as compared to 21.9 days in control untreated-animals, representing an increase in life span of 9.6 % (Figure 3). Although this ILS represents a marginal effect as compared to a minimum optimal effect […], a small trend can be inferred supporting a potential protective activity by 15, that requires to be further confirmed. […] To go further, studies are intended in the near future using a larger range of doses of 15.
Figure 3 Kaplan–Meier diagram in groups of TLT-bearing NMRI mice receiving intraperitoneal (i.p.) saline (control untreated animals). Compound 15 was also i.p. administered as 10 mg/kg body weight, 24 h after i.p. transplantation of TLT cells.
Young adult male NMRI mice (25–30 g) were obtained from Janvier Labs (Saint-Berthevin, France). After their placement at the University Animal Facilities, animals were randomized according to their body weight. They were housed in groups of five mice per cage (40 × 25 × 15 cm^3) in a constant temperature environment (22 °C) with alternating 12 h day/night cycles receiving standard food (UAR, Villemoisson-sur-Orge, France) and tap water ad libitum.
Taper et al. first observed the transplantable primary liver tumor (TLT) in 1966 in a two-month old female Swiss Webster mouse. […] Fritzler et al. further characterized the ultrastructure of TLT hepatoma ascites cells. Regarding our experimental conditions, the TLT tumor was maintained by weekly intraperitoneal (i.p.) transplantation (10^4 cells/mice). […] Then, mice mortality was daily recorded. […]
The antitumor activity was calculated according to Geran et al. using the mean survival time (m.s.t.) at day 30 and the increase in life span (ILS) calculated as ILS = [([…]) − 1] × 100. […]

T24 (bladder) cells = tested on: T24 (bladder) cells; design: method as in doi:10.1016/j.tetlet.2015.07.034; conditions: MTT, data from Valderrama et al. ref 16, read-out: IC50 ± SEM T24; cited from earlier work

With `Cc1ccc2c(c1)SC1=NC3=C(C(=O)c4ccccc4C3=O)C(C)(O)N12` (stereo not drawn) [Compound 15] as the compound, how does the IC50 ([1]; read-out: IC50 values on the panel of cancer cells (range over cell lines)) read?
Its IC50 is 110 to 1770 nM.

What about the IC50 ([1]; read-out: mean IC50 value calculated from the individual IC50 values of the three cancer cell lines) of the same compound?
The IC50 was 1100 to 1610 nM.

What about the “MSI: mean selective index” value ([1]; IC50 values of fibroblasts (AG 1523)/IC50 values of tumor cells (T24, DU-145, MCF-7)) of the same compound?
Its value is 29.4.

And the Hsp90 protein cleavage (Hsp90 [2])?
The Hsp90 protein cleavage was “induced an oxidative cleavage of Hsp90”.

What about the Hsp90 protein cleavage (Hsp90 [3]) of the same compound?
The Hsp90 protein cleavage was “oxidative cleavage of Hsp90”.

What about the “mean survival time (m.s.t.)” value ([4]; 10 mg/kg i.p. single dose 24 h after i.p. transplantation, control 21.9 days) of the same compound?
The value was 24.0 days.

And the “increase in life span (ILS)” value ([4]; 10 mg/kg i.p. single dose, vs control untreated animals)?
The value was 9.6%.

And the “mean of individual mouse survival” value ([4]; 10 mg/kg i.p., control 21.2 ± 1.6 days, t-test p = 0.262, no significant difference)?
The value was 22.8 ± 6.1 days.

What about the IC50 (T24 (bladder) cells) of the same compound?
Its IC50 is 220 ± 60 nM.
